How the values were obtained:
20S Proteasome = target: T1, 20S Proteasome (Oryctolagus cuniculus, UniProt G1T4Q9); test: 20S Proteasome Assay; assay type: biochemical, Rabbit; settings: read-out: 20S Prot IC50
T1 sequence (G1T4Q9 60-263): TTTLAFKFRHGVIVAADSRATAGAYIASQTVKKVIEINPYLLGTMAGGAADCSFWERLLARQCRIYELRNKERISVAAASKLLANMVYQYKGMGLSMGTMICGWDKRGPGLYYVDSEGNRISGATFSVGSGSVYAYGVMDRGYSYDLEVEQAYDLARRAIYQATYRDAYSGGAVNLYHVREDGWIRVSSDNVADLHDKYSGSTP
Protocol: 25 μl of a reaction buffer containing 400 μM of the fluorogenic substrate Suc-Leu-Leu-Val-Tyr-AMC (Bachem) are dispensed per well of a white microtiter plate. Test compounds dissolved in 0.5 μl DMSO are added. To start the reaction; 25 μl of reaction buffer containing 35 ng of enzyme (20S Proteasome, Rabbit, Calbiochem) are added. The increase in fluorescence (excitation at 360 nm; emission at 440 nm) is measured over 30 min at 30° C. at 30″. The IC50's are then determined from the slopes.

human μ-calpain = target: T2, human μ-calpain (Homo sapiens, UniProt P07384); test: Enzymatic Calpain Inhibition Assay; assay type: biochemical; settings: read-out: Calp I IC50
T2 construct: purchased Calbiochem
T2 sequence (P07384 1-714): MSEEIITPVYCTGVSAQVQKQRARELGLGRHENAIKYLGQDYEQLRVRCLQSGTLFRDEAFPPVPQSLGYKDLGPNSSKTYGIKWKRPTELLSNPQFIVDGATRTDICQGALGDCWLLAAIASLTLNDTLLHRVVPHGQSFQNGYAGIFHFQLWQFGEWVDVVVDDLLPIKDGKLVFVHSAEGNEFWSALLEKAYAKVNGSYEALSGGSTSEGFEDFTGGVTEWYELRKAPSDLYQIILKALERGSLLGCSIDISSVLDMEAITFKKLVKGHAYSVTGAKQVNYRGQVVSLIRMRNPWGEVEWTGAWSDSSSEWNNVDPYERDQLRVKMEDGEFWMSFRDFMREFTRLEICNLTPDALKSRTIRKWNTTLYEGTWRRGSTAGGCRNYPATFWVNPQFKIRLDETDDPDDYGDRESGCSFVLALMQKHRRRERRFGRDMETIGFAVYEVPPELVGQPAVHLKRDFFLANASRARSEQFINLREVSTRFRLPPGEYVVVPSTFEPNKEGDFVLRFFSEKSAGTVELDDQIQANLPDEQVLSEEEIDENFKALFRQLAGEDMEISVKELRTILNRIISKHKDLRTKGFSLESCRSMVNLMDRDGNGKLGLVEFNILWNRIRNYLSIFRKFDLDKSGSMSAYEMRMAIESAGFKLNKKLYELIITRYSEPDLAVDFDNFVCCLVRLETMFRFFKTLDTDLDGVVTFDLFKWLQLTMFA
T2 sequence (P04632 1-268 partner): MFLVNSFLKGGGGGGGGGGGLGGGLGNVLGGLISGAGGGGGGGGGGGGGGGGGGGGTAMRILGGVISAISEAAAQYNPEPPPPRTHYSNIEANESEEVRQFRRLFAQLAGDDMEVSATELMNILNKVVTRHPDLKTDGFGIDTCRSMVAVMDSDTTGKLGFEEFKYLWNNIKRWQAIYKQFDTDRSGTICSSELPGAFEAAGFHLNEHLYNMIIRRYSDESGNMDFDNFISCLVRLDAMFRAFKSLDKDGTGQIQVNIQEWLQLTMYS
Protocol: The Ki value was also determined in some cases. These criteria were used to measure the inhibitory effect of the compounds (I) on calpain I, calpain II and cathepsin B.
The inhibitory properties of calpain inhibitors are tested in 100 μl of a buffer containing 100 mM imidazole pH 7.5, 5 mM L-Cystein-HCl, 5 mM CaCl2, 250 μM of the calpain fluorogenic substrate Suc-Leu-Tyr-AMC (Sigma) (Sasaki et al., J. Biol. Chem., 1984, 259, 12489-12949) dissolved in 2.5 μl DMSO and 0.5 μg of human μ-calpain (Calbiochem). The inhibitors dissolved in 1 μl DMSO are added to the reaction buffer. The fluorescence of the cleavage product 7-amino-4-methylcoumarin (AMC) is followed in a SPECTRAmax GEMINI XS (Molecular Device) fluorimeter at λex=360 nm and λem=440 nm at 30° C. during 30 min at intervals of 30 sec in 96-well plates (Greiner). The initial reaction velocity at different inhibitor concentrations is plotted against the inhibitor concentration and the IC50 values determined graphically.

[1] = test system: cellular calpains in C2C12 myoblasts; test: Calpain Inhibition Assay in C2C12 Myoblasts; assay type: cell-based; settings: read-out: Calp I IC50 Myoblast
Protocol: This assay is aimed at monitoring the ability of the substance to inhibit cellular calpains. C2C12 myoblasts are grown in 96-well plates in growth medium (DMEM, 20% foetal calf serum) until they reach confluency. The growth medium is then replaced by fusion medium (DMEM, 5% horse serum). 24 hours later the fusion medium is replaced by fusion medium containing the test substances dissolved in 1 μl DMSO. After 2 hours of incubation at 37° C. the cells are loaded with the calpain fluorogenic substrate Suc-Leu-Tyr-AMC at 400 μM in 50 μl of a reaction buffer containing 135 mM NaCl; 5 mM KCl; 4 mM CaCl2; 1 mM MgCl2; 10 mM Glucose; 10 mM HEPES pH 7.25 for 20 min at room temperature. The calcium influx, necessary to activate the cellular calpains, is evoked by the addition of 50 μl reaction buffer containing 20 μM of the calcium ionophore Br-A-23187 (Molecular Probes). The fluorescence of the cleavage product AMC is measured as described above during 60 min at 37° C. at intervals of 1 min. The IC50 values are determined as described above. Comparison of the IC50 determined in the enzymatic calpain inhibition assay to the IC50 determined in the C2C12 myoblasts calpain inhibiton assay, allows to evaluate the cellular uptake or the membrane permeability of the substance.

| Structure (SMILES) | IC50 (20S Proteasome) | IC50 (human μ-calpain) | IC50 [1] |
| --- | --- | --- | --- |
| CCNC(=O)C(=O)C(Cc1ccc(OC)cc1)NC(=O)C(NC(=O)C(CCc1ccccc1)NC(=O)CCc1cccs1)C(C)C (stereo not drawn) [Example 520] | 23 nM | 15 nM | 10 nM |
| CCNC(=O)C(=O)C(Cc1ccc(Cl)cc1)NC(=O)C(NC(=O)C(Cc1cccc2ccccc12)NC(=O)CCCCc1cccs1)C(C)C (stereo not drawn) [Example 22] | < 10 nM | 300 nM | 150 nM |
| CCNC(=O)C(=O)[C@H](Cc1ccc(Cl)cc1)NC(=O)[C@@H](NC(=O)[C@H](Cc1ccccc1)NC(=O)CCCCc1cccs1)C(C)C [Example 1] | 120 nM | 45 nM | 50 nM |

Source: patent US20080058324A1, “Alpha-Keto Carbonyl Calpain Inhibitors” (SANTHERA PHARMACEUTICALS (SCHWEIZ) AG, priority 2004, published 2008)
